Test system: B-16 melanoma cells
Conditions: mouse, 5 days
Method: If the culture system includes a substance capable of inhibiting the melanin-production during the proliferation, the darkening of the cells is suppressed, while the whitening thereof is promoted. Thus, the melanin-production-inhibitory function can be evaluated by comparing the degree of darkening of cells observed when any sample is not added with the degree of whitening of cells observed when the sample is added. In this connection, some of substances may be toxic to the B-16 melanoma cells. To evaluate this cytotoxicity, the cell-survival rate observed when a sample is not added is compared with that observed for the system free of any sample. The melanin-production-inhibitory function is evaluated using the cell-whitening degree and the cell-survival rate in combination.
Cytotoxicity Index=C/D <Formula 4>
In this respect, the term “cell-survival rate” herein used is defined by the following <Formula 5>:
Cell-Survival Rate(%)=(E/F)×100 <Formula 5>
E: Viable cell count observed for the system to which a sample is added.
F: Number of cells observed for the system free of any added test sample. […]
The rate of cell-survival can be calculated according to the aforementioned relation: <Formula 5>.

OC[C@H]1O[C@@H](Oc2ccc(O)cc2)[C@H](O)[C@@H](O)[C@@H]1O [arbutin] was tested, and the “concentration at N.D. (rate of cell survival not more than 10%)” value was 500 ppm.

— patent US6682763B2, “Skin-beautifying agent, anti-aging agent for the skin, whitening agent and external agent for the skin” (The Nisshin Oil Mills, Ltd., priority 1999, dated 2004)
